We go through 12 molecules from PubChem BioAssay AID334 (DTP/NCI, 2004).

Where “and” joins values, the source holds several entries; their conditions need not be identical. Equal entries are not always repeated. Inconclusive results and toxic doses are left out.

This assay concerns CD2F1 mice, intracerebral P388 leukemia, median survival T/C%. Kind of assay: NCI In Vivo Anticancer Drug Screen. Data for tumor model P388 Leukemia (intracerebral) in CD2F1 (CDF1) mice. As to conditions: endpoint: median survival time, higher = longer survival. The protocol: The antitumor activity of compounds was measured in mice bearing transplantable tumors. Survival or tumor size were measured and the results are expressed as the measurement made in the treated group (T) divided by the measurement made in the vehicle treated control group (C). The tumor model used in this assay is P388 Leukemia (intracerebral) in CD2F1 (CDF1) mice

Where [1] appears, read: dose: 0.25 mg/kg/injection, schedule: Q01DX009 (ip), vehicle: saline.
Where [2] appears, read: dose: 0.5 mg/kg/injection, schedule: Q01DX009 (ip), vehicle: saline.
Where [3] appears, read: dose: 2.0 mg/kg/injection, schedule: Q01DX009 (ip), vehicle: saline.

Take `CCCCCCOC(=O)C(N)Cc1ccc(N(CCCl)CCCl)cc1` (stereo unspecified): the T/C is, setting by setting: (dose: 1.6 mg/kg/injection, schedule: Q03HX008 (ip), vehicle: saline) 105 % of control; (dose: 3.2 mg/kg/injection, schedule: Q03HX008 (ip), vehicle: saline) 115 % of control; (dose: 6.4 mg/kg/injection, schedule: Q03HX008 (ip), vehicle: saline) 110 % of control.
For the molecule `C#C[C@]1(O)CC[C@H]2[C@@H]3CCc4cc(O)ccc4[C@H]3CC[C@@]21C`, the T/C (dose: 8.0 mg/kg/injection, schedule: Q01DX009 (ip), vehicle: Klucel (hydroxypropylcellulose) (HPC)) was 90 % of control and 100 % of control; the T/C (dose: 16.0 mg/kg/injection, schedule: Q01DX009 (ip), vehicle: Klucel (hydroxypropylcellulose) (HPC)) was 94 % of control and 104 % of control; the T/C (dose: 16.0 mg/kg/injection, schedule: Q01DX009 (ip), vehicle: saline with Tween-80) was 95 % of control; the T/C (dose: 32.0 mg/kg/injection, schedule: Q01DX009 (ip), vehicle: Klucel (hydroxypropylcellulose) (HPC)) was 100 % of control and 101 % of control; the T/C (dose: 32.0 mg/kg/injection, schedule: Q01DX009 (ip), vehicle: saline with Tween-80) was 100 % of control; the T/C (dose: 64.0 mg/kg/injection, schedule: Q01DX009 (ip), vehicle: Klucel (hydroxypropylcellulose) (HPC)) was 94 % of control and 100 % of control. Moreover, the T/C reads like this: (dose: 64.0 mg/kg/injection, schedule: Q01DX009 (ip), vehicle: saline with Tween-80) 95 % of control; (dose: 128.0 mg/kg/injection, schedule: Q01DX009 (ip), vehicle: Klucel (hydroxypropylcellulose) (HPC)) 99 % of control and 102 % of control; (dose: 256.0 mg/kg/injection, schedule: Q01DX009 (ip), vehicle: Klucel (hydroxypropylcellulose) (HPC)) 95 % of control and 100 % of control; (dose: 512.0 mg/kg/injection, schedule: Q01DX009 (ip), vehicle: Klucel (hydroxypropylcellulose) (HPC)) 86 % of control and 99 % of control; (dose: 512.0 mg/kg/injection, schedule: Q01DX009 (ip), vehicle: saline with Tween-80) 103 % of control.
In the case of `COc1ccc2c(c1)CCC(c1ccccc1)=C2c1ccc(OCCN2CCCC2)cc1`, the T/C is, setting by setting: (dose: 12.0 mg/kg/injection, schedule: Q01DX005 (ip), vehicle: Klucel (hydroxypropylcellulose) (HPC)) 104 % of control and 110 % of control; (dose: 24.0 mg/kg/injection, schedule: Q01DX005 (ip), vehicle: Klucel (hydroxypropylcellulose) (HPC)) 97 % of control and 102 % of control; (dose: 48.0 mg/kg/injection, schedule: Q01DX005 (ip), vehicle: Klucel (hydroxypropylcellulose) (HPC)) 104 % of control and 108 % of control; (dose: 96.0 mg/kg/injection, schedule: Q01DX005 (ip), vehicle: Klucel (hydroxypropylcellulose) (HPC)) 96 % of control.
Regarding `NC(=O)c1csc(C2OC(CO)C(O)C2O)n1` (stereo unspecified), the T/C was 105 % of control (dose: 12.5 mg/kg/injection, schedule: Q01DX009 (ip), vehicle: saline); 121 % of control (dose: 25.0 mg/kg/injection, schedule: Q01DX009 (ip), vehicle: saline); 110 % of control (dose: 50.0 mg/kg/injection, schedule: Q01DX009 (ip), vehicle: saline); 119 % of control (dose: 100.0 mg/kg/injection, schedule: Q01DX009 (ip), vehicle: saline); 121 % of control (dose: 200.0 mg/kg/injection, schedule: Q01DX009 (ip), vehicle: saline); 93 % of control (dose: 800.0 mg/kg/injection, schedule: Q01DX009 (ip), vehicle: saline).
As for `COc1cc([C@@H]2c3cc4c(cc3[C@@H](OC3OC5CO[C@@H](c6cccs6)OC5C(O)C3O)[C@H]3COC(=O)[C@H]23)OCO4)cc(OC)c1O` (stereo partly specified), the T/C is 108 % of control under setting [1]; 116 % of control under setting [2]; 152 % of control under setting [3]; 119 % of control (dose: 4.0 mg/kg/injection, schedule: Q01DX009 (ip), vehicle: saline).
Take `CC(C)=CCC1=C(O)c2ccccc2C(=O)C1=O`: the T/C (dose: 32.0 mg/kg/injection, schedule: Q01DX005 (ip), vehicle: Klucel (hydroxypropylcellulose) (HPC)) is 104 % of control; the T/C (dose: 64.0 mg/kg/injection, schedule: Q01DX005 (ip), vehicle: Klucel (hydroxypropylcellulose) (HPC)) is 104 % of control; the T/C (dose: 128.0 mg/kg/injection, schedule: Q01DX005 (ip), vehicle: Klucel (hydroxypropylcellulose) (HPC)) was 95 % of control; the T/C (dose: 256.0 mg/kg/injection, schedule: Q01DX005 (ip), vehicle: Klucel (hydroxypropylcellulose) (HPC)) is 92 % of control.
For `O=C1c2c(O)ccc(O)c2C(=O)c2c(NCCNCCO)ccc(NCCNCCO)c21`, the T/C (dose: 0.5 mg/kg/injection, schedule: Q01DX009 (ip), vehicle: saline with Tween-80) is 100 % of control; the T/C (dose: 1.0 mg/kg/injection, schedule: Q01DX009 (ip), vehicle: saline with Tween-80) is 105 % of control; the T/C (dose: 2.0 mg/kg/injection, schedule: Q01DX009 (ip), vehicle: saline with Tween-80) was 106 % of control.
For `CN(Cc1cnc2nc(N[Si](C)(C)C)nc(N[Si](C)(C)C)c2n1)c1ccc(C(=O)NC(CCC(=O)O[Si](C)(C)C)C(=O)O[Si](C)(C)C)cc1` (stereo unspecified), the T/C (dose: 0.63 mg/kg/injection, schedule: Q01DX009 (ip), vehicle: olive oil, sesame oil, peanut oil) was 110 % of control; the T/C (dose: 0.63 mg/kg/injection, schedule: Q01DX009 (ip), vehicle: saline) was 90 % of control; the T/C (dose: 1.25 mg/kg/injection, schedule: Q01DX009 (ip), vehicle: olive oil, sesame oil, peanut oil) is 110 % of control; the T/C (dose: 1.25 mg/kg/injection, schedule: Q01DX009 (ip), vehicle: saline) is 100 % of control; the T/C (dose: 1.9 mg/kg/injection, schedule: Q04DX003 (ip), vehicle: saline) was 95 % of control; the T/C (dose: 2.5 mg/kg/injection, schedule: Q01DX009 (ip), vehicle: saline) was 100 % of control. Also, the T/C is 95 % of control (dose: 3.8 mg/kg/injection, schedule: Q04DX003 (ip), vehicle: saline); 95 % of control (dose: 5.0 mg/kg/injection, schedule: Q01DX009 (ip), vehicle: saline); 110 % of control (dose: 15.0 mg/kg/injection, schedule: Q04DX003 (ip), vehicle: saline); 120 % of control (dose: 30.0 mg/kg/injection, schedule: Q04DX003 (ip), vehicle: saline); 115 % of control (dose: 60.0 mg/kg/injection, schedule: Q04DX003 (ip), vehicle: saline).
As to `O=P1(N(CCCl)CCCl)NCCCO1` (stereo unspecified), for the setting “dose: 265.0 mg/kg/injection, schedule: Q01DX001 (ip), vehicle: saline”, the T/C is 163 % of control.
`COc1ccc(CC2C(=O)NC(C)C(=O)N(C)C3C(=O)N(C)C(Cc4ccc(O)c(c4)Oc4ccc(cc4)C3O)C(=O)NC(C)C(=O)NC(C)C(=O)N2C)cc1` (stereo unspecified): the T/C is, setting by setting: (dose: 0.12 mg/kg/injection, schedule: Q01DX009 (ip), vehicle: Klucel (hydroxypropylcellulose) (HPC)) 91 % of control and 98 % of control; (dose: 0.13 mg/kg/injection, schedule: Q01DX009 (ip), vehicle: saline) 104 % of control and 108 % of control; (dose: 0.25 mg/kg/injection, schedule: Q01DX009 (ip), vehicle: Klucel (hydroxypropylcellulose) (HPC)) 100 % of control and 103 % of control and 109 % of control; under setting [1], 101 % of control and 109 % of control; (dose: 0.5 mg/kg/injection, schedule: Q01DX009 (ip), vehicle: Klucel (hydroxypropylcellulose) (HPC)) 100 % of control and 101 % of control and 106 % of control; under setting [2], 104 % of control and 111 % of control. Besides, the T/C reads like this: (dose: 1.0 mg/kg/injection, schedule: Q01DX009 (ip), vehicle: Klucel (hydroxypropylcellulose) (HPC)) 95 % of control and 101 % of control and 106 % of control; (dose: 1.0 mg/kg/injection, schedule: Q01DX009 (ip), vehicle: saline) 97 % of control and 103 % of control; (dose: 2.0 mg/kg/injection, schedule: Q01DX009 (ip), vehicle: Klucel (hydroxypropylcellulose) (HPC)) 89 % of control; under setting [3], 109 % of control and 111 % of control.
As to `NC(=S)N/N=C/c1ccc(O)cn1`, the T/C is, setting by setting: (dose: 12.0 mg/kg/injection, schedule: Q01DX005 (ip), vehicle: saline) 99 % of control and 100 % of control; (dose: 24.0 mg/kg/injection, schedule: Q01DX005 (ip), vehicle: saline) 96 % of control and 97 % of control; (dose: 48.0 mg/kg/injection, schedule: Q01DX005 (ip), vehicle: saline) 101 % of control and 106 % of control; (dose: 96.0 mg/kg/injection, schedule: Q01DX005 (ip), vehicle: saline) 93 % of control and 103 % of control.
Consider `CN=S(=O)(OCCCCCOS(=O)(=NC)c1ccccc1)c1ccccc1` (stereo unspecified), for which the T/C runs as follows: (dose: 6.25 mg/kg/injection, schedule: Q01DX009 (ip), vehicle: saline with Tween-80) 107 % of control; (dose: 12.5 mg/kg/injection, schedule: Q01DX009 (ip), vehicle: saline with Tween-80) 100 % of control; (dose: 25.0 mg/kg/injection, schedule: Q01DX009 (ip), vehicle: saline with Tween-80) 101 % of control; (dose: 50.0 mg/kg/injection, schedule: Q01DX009 (ip), vehicle: saline with Tween-80) 102 % of control; (dose: 100.0 mg/kg/injection, schedule: Q01DX009 (ip), vehicle: saline with Tween-80) 102 % of control.
